The subject of the assay is OVA antigen. Nature of the assay: IgG titer with OVA antigen (indirect ELISA, immunized mice). The format is in vivo, BALB/c mice. On the procedure:
Adjuvanticity of 15b was evaluated using antigens (OVA, HBsAg, DENV and JEV) in BALB/c mice model—From the immunized mice retro-orbital sampling or retro-orbital blood was collected on 14th and 28th day before sacrifice. Serum was separated by centrifugation at 12,500 rpm for 5 min. Transferred to a clean centrifuge tube and store at −80 until used.
The plates were coated with antigen in carbonate buffer. Plates were incubated at 4° C. overnight. They were then washed 3 times with PBS/Tween, and non-specific binding sites were blocked by adding 200 μl of blocking solution. Plates were incubated at room temperature for 1 h. Then 3 times wash is done, diluted standards and samples to desired concentrations in blocking solution were added to the plates. Incubate at 37° C. for 1 h or at 4° C. overnight. Plates were washed 3 times with PBS/Tween. Avidin-Horseradish Peroxidase (Av-HRP) was diluted and added. Incubated at room temperature for 30 min. Plates were washed 3 times with PBS/Tween. OPD Substrate was added and plates were incubated at room temperature (4-30 min) for colour development. The colour reaction was stopped by adding 50 μl of stop solution. Optical density (OD) was read at 492 nm.

We go through six compounds from patent US20250170237A1, “MURAMYL DIPEPTIDES AND PROCESS FOR PREPARATION THEREOF” (priority 2022, published 2025).

Structures are written as SMILES.

Consider `CCCCCCCC(=O)OCCCCCCCC(=O)N[C@H]1C(O)O[C@H](CO)[C@@H](O)[C@@H]1O[C@H](C)C(=O)N[C@@H](C)C(=O)N[C@H](CCC(=O)O)C(N)=O` (stereo partly drawn) [15 h, (4R)-5-amino-4-((2S)-2-((2R)-2-(((3R,4R,5S,6R)-2,5-dihydroxy-6-(hydroxymethyl)-3-(8-(octanoyloxy)octanamido)tetrahydro-2H-pyran-4-yl)oxy)propanamido)propanamido)-5-oxopentanoic acid], for which the “IgG titer with OVA antigen” value reads like this: (dose 1 μg) 8750-64000; (dose 10 μg) 10000-50000; (dose 100 μg) 3750-25000.
On the same counts, the results for `C[C@H](NC(=O)[C@@H](C)O[C@H]1[C@H](O)[C@@H](CO)OC(O)[C@@H]1NC(=O)C1CCC1)C(=O)N[C@H](CCC(=O)O)C(N)=O` (stereo partly drawn) [15c, (4R)-5-amino-4-((2S)-2-((2R)-2-(((3R,4R,5S,6R)-3-(cyclobutanecarboxamido)-2,5-dihydroxy-6-(hydroxymethyl)tetrahydro-2H-pyran-4-yl)oxy)propanamido)propanamido)-5-oxopentanoic acid] are 25000-102400, 10000-85000 and 5500-75000.
Taken in the same sequence, the figures for `C[C@H](NC(=O)[C@@H](C)O[C@H]1[C@H](O)[C@@H](CO)OC(O)[C@@H]1NC(=O)C1CCCC1)C(=O)N[C@H](CCC(=O)O)C(N)=O` (stereo partly drawn) [15d, (4R)-5-amino-4-((2S)-2-((2R)-2-(((3R,4R,5S,6R)-3-(cyclopentanecarboxamido)-2,5-dihydroxy-6-(hydroxymethyl)tetrahydro-2H-pyran-4-yl)oxy)propanamido)propanamido)-5-oxopentanoic acid] were 3200-12400, 3200-41600 and 6400-84000.
`C[C@H](NC(=O)[C@@H](C)O[C@H]1[C@H](O)[C@@H](CO)OC(O)[C@@H]1NC(=O)C1CCCCC1)C(=O)N[C@H](CCC(=O)O)C(N)=O` (stereo partly drawn) [15e, (4R)-5-amino-4-((2S)-2-((2R)-2-(((3R,4R,5S,6R)-3-(cyclohexanecarboxamido)-2,5-dihydroxy-6-(hydroxymethyl)tetrahydro-2H-pyran-4-yl)oxy)propanamido)propanamido)-5-oxopentanoic acid]: the “IgG titer with OVA antigen” value is, setting by setting: (dose 1 μg) 1600-12400; (dose 10 μg) 1600-41600; (dose 100 μg) 12800-96000.
Taken in the same sequence, the figures for `CCCCCCCCCCCC(=O)OCCCCCCCC(=O)N[C@H]1C(O)O[C@H](CO)[C@@H](O)[C@@H]1O[C@H](C)C(=O)N[C@@H](C)C(=O)N[C@H](CCC(=O)O)C(N)=O` (stereo partly drawn) [15g, (4R)-5-amino-4-((2S)-2-((2R)-2-(((3R,4R,5S,6R)-3-(8-(dodecanoyloxy)octanamido)-2,5-dihydroxy-6-(hydroxymethyl)tetrahydro-2H-pyran-4-yl)oxy)propanamido)propanamido)-5-oxopentanoic acid] were 25000-124000, 10000-60000 and 5000-35000.
Taken in the same sequence, the figures for `C[C@H](NC(=O)[C@@H](C)O[C@H]1[C@H](O)[C@@H](CO)OC(O)[C@@H]1NC(=O)C1CCCO1)C(=O)N[C@H](CCC(=O)O)C(N)=O` (stereo partly drawn) [15i, (4R)-5-amino-4-((2S)-2-((2R)-2-(((3R,4R,5S,6R)-2,5-dihydroxy-6-(hydroxymethyl)-3-(tetrahydrofuran-2-carboxamido)tetrahydro-2H-pyran-4-yl)oxy)propanamido)propanamido)-5-oxopentanoic acid] were 4800-50000, 102400-560000 and 119466-484000.
